Measured values: patent EP0778023B1, “Product comprising rapamycin or particular derivatives and an NMDA or AMPA antagonist for use for the treatment of epilepsy or Huntington's Disease, and the use of rapamycin or particular derivatives for the manufacture of a medicament for the treatment of epilepsy or Huntington's Disease” (Wyeth, priority 1995, dated 1997)

Tests used:
[1] = tested on: rat hippocampal and cortical cultures (hippocampal neurons); experiment: glutamate induced toxicity in hippocampal cultures, count of live neurons; assay type: cell-based; conditions: 30 µM glutamate
Protocol: (§1) Briefly, rat hippocampal and cortical cultures were prepared according to the method of Furshpan and Potter with some modifications. [Neuron 3:199 (1989)]. Brains were removed from newborn Long Evans pups anesthetized with an injection of 0.1 ml of 20% chloral hydrate. The hippocampi were dissected out and separated from the rest of the cortex. Both tissues were enzymatically digested in 5 ml Earle's Balanced Salt Solution (EBSS) containing 20 u/ml papain, 1 mM L-cysteine, and 0.5 mM EDTA for 30 minutes at 37°C with gentle rocking. The hippocampi and cortical tissues were then washed once with EBSS and the digestion was stopped by incubating at 37°C for 30 minutes with 3-5 mis of inhibitor solution containing 1 mg/ml ovomucoid and 1 mg/ml albumin in EBSS. The digested hippocampi and cortical tissues were washed twice with DME without L-glutamine with 4.5 g/L dextrose before being triturated in 2 ml of DME supplemented with 5% fetal calf serum, 5% rat serum, 50 u/ml penicillin, 0.05 mg/ml streptomycin and MlTO+ serum extender [a medium supplement from Collaborative Biomedical Products] (10% DME). After 50 triturations, undissociated tissue was allowed to settle and the dissociated cell suspension was removed. A fresh 2 ml of 10% DME was added to the remaining tissue and the trituration was repeated. The two cell suspension aliquots were pooled and the cell density was determined with a hemacytometer.
(§2) 30,000 hippocampal cells in 150 µL were plated per well in 96-well plates and incubated at 37°C in 5% CO2. Cortical cells were plated at a density of 500,000 cells per well in 24-well plates. When glia cells were confluent (after approximately 3 days), 4-10 µM cytosine β-D-arabinofuranoside was added to each well to prevent further proliferation. One week after plating, the medium was removed and replaced with DME supplemented with 2.5% fetal calf serum, 2.5% rat serum, 50 u/ml penicillin, 0.05 mg/ml streptomycin, MITO+, 1 mM kynurenate and 10 mM MgCl2 (5% DME + KM). Kynurenate is a nonspecific blocker of glutamate receptors and elevated levels of magnesium block calcium and sodium influx through NMDA receptor channels. The addition of KM prevents neurotoxicity that occurs with glutamate found in serum, and allows neurons to be maintained in culture for up to several months. The cells were fed weekly by exchanging half the medium with fresh 5% DME + KM.
The compound to be evaluated was dissolved in DMSO to make 10 mM stock solutions and stored in aliquots at -80°C. Just before each procedure was carried out, aliquots of the stock solutions were thawed and diluted in DME or Hanks' Balanced Salt Solution (HBSS) containing 44 mM sodium bicarbonate, 10 mM glucose, and 30 µM glutamate to obtain test concentrations from 1 nM to 10 µM.
After 4-12 weeks in culture, hippocampal cells were washed three times and fed with test compound in HBSS, or serum free DME (SF DME) and 30 to 150 µM glutamate. At least three wells in every test procedure were treated with each drug concentration. 30 µM Glutamate kills 70-80% of the neurons in younger cultures, and more in older cultures. The toxicity induced by 30 µM glutamate was blocked by 1 mM kynurenate + 10 mM MgCl2 (KM).
Following overnight incubation at 37°C, the number of live hippocampal neurons remaining in five fields, representing the north, south, east, and west extremes and the center of each well, were counted. Each field was visualized through a 10x objective with a 15x eyepiece and was approximately 1.54 mm^2 in area. Conditions were generally done in triplicate. The mean number of neurons per well and the standard deviation for each condition were calculated. The mean number of neurons remaining in the control 30 µM glutamate condition reflects those that were not sensitive to glutamate toxicity.

Cortical neurons = experiment: ischemia induced neurotoxicity in cortical cultures with NMDA and AMPA inhibitors, LDH activity; assay type: cell-based, rat; conditions: 1 week old cortical cell cultures
Protocol: as §1, §2
Cortical neurons were washed six times with DME without glucose that has been deoxygenated by bubbling the medium with 95% N2/5% CO2 for at least 10 minutes, to induce an ischemic state that will cause neuronal cell death that can be observed by measuring lactate dehydrogenase levels, as the amount of LDH activity in each well is directly correlated with the number of dead cells. 100 µM [2-(8,9-Dioxo-2,6-diazabicyclo[5.2.0]non-1(7)-en-2-yl)-ethyl]-phosphonic acid (disclosed in U.S. Patent 5,168,103 and 10 µM YM90K were added to certain wells to block NMDA and AMPA glutamate receptors, respectively. To test wells, 1 µM of the compound of Example 1 was added. Control wells were washed with normal DME with glucose and 100 µM [2-(8,9-dioxo-2,6-diazabicyclo[5.2.0]non-1(7)-en-2-yl)ethyl]phosphonic acid. 5 µL samples were taken from each well at different time points following ischemia and the LDH activity in those samples was determined by adding 250 µL of 2 mg NADH/25 mL phosphate buffer to each sample. After incubating for 20-30 minutes, 10 µL of 22.7 mM pyruvate was added and the optical density (OD) at 340 nm read. The change in optical density with time (mOD/min) reflects the amount of LDH in the sample. Higher optical density changes means more LDH activity indicating more cell death. Samples were taken from 4-8 wells per condition and the average and standard deviation for each condition and time point determined.

[2] = 2 nM test compound, HBSS, overnight incubation
[3] = 20 nM test compound, HBSS, overnight incubation
[4] = 200 nM test compound, HBSS, overnight incubation
[5] = Time 8 hours, test compound administered with the NMDA and AMPA inhibitors
[6] = Time 13 hours, with the NMDA and AMPA inhibitors
[7] = Time 24 hours, with the NMDA and AMPA inhibitors
[8] = Time 30 hours, with the NMDA and AMPA inhibitors

Compound	No. Neurons Alive [1, 2]	No. Neurons Alive ([1]; 10nM test compound, SF DME, overnight incubation, mean per well (five fields))	No. Neurons Alive [1, 3]	No. Neurons Alive ([1]; 100nM test compound, SF DME, overnight incubation)	No. Neurons Alive [1, 4]	No. Neurons Alive ([1]; 1µM test compound, SF DME, overnight incubation)	No. Neurons Alive ([1]; 10µM test compound, SF DME, overnight incubation)	LDH Activity (Cortical neurons; [5]) [mOD/min]	LDH Activity (Cortical neurons; [6]) [mOD/min]	LDH Activity (Cortical neurons; [7]) [mOD/min]	LDH Activity (Cortical neurons; [8]) [mOD/min]	No. Neurons Alive ([1]; 1 mM, HBSS, overnight incubation (second table))	No. Neurons Alive ([1]; 1 mM, SF DME, overnight incubation (first table))
CO[C@H]1C[C@@H]2CC[C@@H](C)[C@@](O)(O2)C(=O)C(=O)N2CCCC[C@H]2C(=O)O[C@H]([C@H](C)C[C@@H]2CC[C@@H](O)[C@H](OC)C2)CC(=O)[C@H](C)/C=C(\C)[C@@H](O)[C@@H](OC)C(=O)[C@H](C)C[C@H](C)/C=C/C=C/C=C/1C [Example 1, Rapamycin]	63	114	71	92	229	46	47	1.04	3.08	9.00	14.02	–	–
CO[C@H]1C[C@@H]2CC[C@@H](C)[C@@](O)(O2)C(=O)C(=O)N2CCCC[C@H]2C(=O)O[C@H]([C@H](C)C[C@@H]2CC[C@@H](OS(=O)(=O)c3ccc(N=Nc4ccc(N(C)C)cc4)cc3)[C@H](OC)C2)CC(=O)[C@H](C)/C=C(\C)[C@@H](O)[C@@H](OC)C(=O)[C@H](C)C[C@H](C)/C=C/C=C/C=C/1C [Example 3, Rapamycin 42-ester with 4-[[4-(dimethylamino)phenyl]azo]benzenesulfonic acid]	98	–	285	–	241	–	–	0.84	2.36	7.03	11.25	–	–
O=C(O)c1cc(O)c2ccccc2n1 [Kynurenate, kynurenate, reference compound]	–	–	–	–	–	–	–	–	–	–	–	202	82
Rapamycin 1,3, Diels Alder adduct with Phenyltriazolinedione [Example 2]	110	–	180	–	127	–	–	1.08	2.31	7.69	12.43	–	–
Rapamycin 1,3-Diels Alder adduct with methyltriazolinedione [Example 4]	117	–	130	–	157	–	–	0.91	2.54	8.21	13.31	–	–
Rapamycin-O-benzyl-27-oxime [Example 5]	131	–	96	–	135	–	–	0.74	1.65	4.82	8.83	–	–
